SMILES strings stand for the structures. Read-outs that look alike come from different tables or passages of the source. Some results are limits rather than exact numbers.

By MIC is commonly meant the lowest concentration found to suppress growth. What is called IC50 is the concentration that gives 50% inhibition.

In one test the test system is E. coli (tolC). Description: MIC determination, E. coli (tolC). Conditions: Escherichia coli, read-out: MIC (μM) E. coli (tolC). It counts as cell-based. The procedure: For MIC determinations for selected bacteria, log phase growing bacteria are re-suspended at 1×10^5 bacteria per mL in LB medium. The compound is added and two-fold dilutions are made. The final volume in the 96-well plate is about 100 uL. The plate is incubated at 37° C. in the dark with shaking. After 16 hours of incubation, growth is monitored by reading A600 or by visual inspection. MIC is defined as the minimum concentration of drug resulting in inhibition of visible growth of bacterial under the conditions described (above) in National Committee for Clinical Laboratory Standards 1993. Methods for dilution antimicrobial susceptibility tests for bacteria that grow aerobically. Approved standard M7-A3; National Committee for Clinical Laboratory Standards: Villanova, Pa.

The target of the next test is RNA-pol S. aureus (Staphylococcus aureus, UniProt P47768+Q2G0N5). The test can be described thus: RNA polymerase inhibition assay (S. aureus enzyme). It counts as biochemical. Particulars: Table 2; read-out: RNA-pol IC50 (μM) S. aureus.
In the next test the test system is S. aureus. Description: MIC determination, S. aureus. The test is classed as cell-based. Conditions: Staphylococcus aureus, read-out: MIC (μM) S. aureus. The procedure:
The compound is added and two-fold dilutions are made. The final volume in the 96-well plate is about 100 uL. The plate is incubated at 37° C. in the dark with shaking. After 16 hours of incubation, growth is monitored by reading A600 or by visual inspection. […] Methods for dilution antimicrobial susceptibility tests for bacteria that grow aerobically. Approved standard M7-A3; National Committee for Clinical Laboratory Standards: Villanova, Pa.

RNA-pol S. aureus, sequence (Q2G0N5 whole entry): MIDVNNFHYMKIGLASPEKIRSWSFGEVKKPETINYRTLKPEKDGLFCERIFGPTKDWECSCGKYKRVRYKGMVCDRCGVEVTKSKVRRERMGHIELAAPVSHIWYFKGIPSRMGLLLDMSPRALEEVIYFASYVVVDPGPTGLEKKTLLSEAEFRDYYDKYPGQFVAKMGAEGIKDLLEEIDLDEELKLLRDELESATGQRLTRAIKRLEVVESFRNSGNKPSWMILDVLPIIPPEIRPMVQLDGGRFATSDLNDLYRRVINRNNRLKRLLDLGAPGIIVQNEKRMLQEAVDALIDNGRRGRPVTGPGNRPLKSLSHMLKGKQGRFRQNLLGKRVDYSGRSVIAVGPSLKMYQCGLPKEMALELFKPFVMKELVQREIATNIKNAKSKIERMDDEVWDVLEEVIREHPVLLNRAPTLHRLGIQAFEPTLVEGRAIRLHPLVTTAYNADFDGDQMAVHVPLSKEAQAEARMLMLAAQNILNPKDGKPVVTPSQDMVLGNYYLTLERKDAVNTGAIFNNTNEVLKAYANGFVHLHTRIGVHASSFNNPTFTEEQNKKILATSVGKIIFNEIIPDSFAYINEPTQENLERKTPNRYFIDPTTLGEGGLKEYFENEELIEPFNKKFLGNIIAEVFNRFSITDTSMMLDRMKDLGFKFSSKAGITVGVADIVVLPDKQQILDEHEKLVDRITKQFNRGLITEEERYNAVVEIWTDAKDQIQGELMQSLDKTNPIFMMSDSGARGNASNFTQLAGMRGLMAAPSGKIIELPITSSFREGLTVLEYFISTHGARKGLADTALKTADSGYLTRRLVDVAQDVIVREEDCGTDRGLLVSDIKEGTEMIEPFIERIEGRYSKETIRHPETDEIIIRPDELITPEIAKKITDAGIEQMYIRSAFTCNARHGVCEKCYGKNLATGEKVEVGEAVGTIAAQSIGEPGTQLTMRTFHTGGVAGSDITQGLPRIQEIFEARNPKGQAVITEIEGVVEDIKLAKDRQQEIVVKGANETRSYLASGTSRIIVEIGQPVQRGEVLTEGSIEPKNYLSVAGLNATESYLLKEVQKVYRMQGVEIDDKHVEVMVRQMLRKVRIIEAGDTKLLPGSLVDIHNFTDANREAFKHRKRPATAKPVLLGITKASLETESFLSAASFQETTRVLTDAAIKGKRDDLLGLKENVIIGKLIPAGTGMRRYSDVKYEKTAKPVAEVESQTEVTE
RNA-pol S. aureus, sequence (Q2FW32 whole entry, further chain): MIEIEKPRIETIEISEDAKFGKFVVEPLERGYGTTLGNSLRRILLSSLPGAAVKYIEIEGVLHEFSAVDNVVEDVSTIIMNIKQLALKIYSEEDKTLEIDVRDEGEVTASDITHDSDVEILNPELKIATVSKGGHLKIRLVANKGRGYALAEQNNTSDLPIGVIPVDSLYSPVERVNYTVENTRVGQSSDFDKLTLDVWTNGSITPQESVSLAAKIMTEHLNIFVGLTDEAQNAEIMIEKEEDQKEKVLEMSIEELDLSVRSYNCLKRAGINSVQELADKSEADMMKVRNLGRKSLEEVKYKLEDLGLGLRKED
RNA-pol S. aureus, sequence (P47768 whole entry): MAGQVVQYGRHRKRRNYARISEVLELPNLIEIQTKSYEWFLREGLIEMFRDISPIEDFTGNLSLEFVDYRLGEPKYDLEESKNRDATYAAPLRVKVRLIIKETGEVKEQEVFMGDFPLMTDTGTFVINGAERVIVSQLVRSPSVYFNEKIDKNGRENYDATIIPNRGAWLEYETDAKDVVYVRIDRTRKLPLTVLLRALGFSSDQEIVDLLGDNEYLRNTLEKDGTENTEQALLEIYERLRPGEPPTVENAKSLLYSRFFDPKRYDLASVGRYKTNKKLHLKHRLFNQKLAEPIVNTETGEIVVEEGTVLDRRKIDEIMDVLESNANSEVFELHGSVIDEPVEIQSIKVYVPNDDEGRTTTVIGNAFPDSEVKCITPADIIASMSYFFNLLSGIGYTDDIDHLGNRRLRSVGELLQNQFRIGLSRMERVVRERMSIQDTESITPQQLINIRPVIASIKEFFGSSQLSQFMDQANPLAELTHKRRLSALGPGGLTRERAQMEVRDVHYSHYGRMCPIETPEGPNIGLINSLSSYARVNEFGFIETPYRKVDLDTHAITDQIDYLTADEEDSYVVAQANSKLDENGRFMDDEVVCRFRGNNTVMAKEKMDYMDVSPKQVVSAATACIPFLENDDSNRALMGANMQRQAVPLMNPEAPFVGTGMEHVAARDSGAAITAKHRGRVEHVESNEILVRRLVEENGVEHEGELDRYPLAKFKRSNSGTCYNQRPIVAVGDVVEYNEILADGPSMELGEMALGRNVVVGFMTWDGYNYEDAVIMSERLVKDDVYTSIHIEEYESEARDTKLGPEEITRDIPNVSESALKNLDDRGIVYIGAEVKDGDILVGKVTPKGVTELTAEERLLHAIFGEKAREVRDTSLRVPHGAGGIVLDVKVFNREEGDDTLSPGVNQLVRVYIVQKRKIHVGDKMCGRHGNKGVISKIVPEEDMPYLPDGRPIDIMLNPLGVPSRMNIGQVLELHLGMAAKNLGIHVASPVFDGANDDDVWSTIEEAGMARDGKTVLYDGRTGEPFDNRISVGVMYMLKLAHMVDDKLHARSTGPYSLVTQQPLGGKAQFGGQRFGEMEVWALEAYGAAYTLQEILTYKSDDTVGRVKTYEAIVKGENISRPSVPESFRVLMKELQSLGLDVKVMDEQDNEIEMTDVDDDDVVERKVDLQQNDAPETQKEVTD

Regarding `COCC1CCCN1c1cc(NC(=O)CNc2ccc(Cl)c(C(F)(F)F)c2)cc(C(F)(F)F)c1` (stereo not drawn) [Compound 129], the MIC with E. coli (tolC) is > 125 µM; in the test with S. aureus (Table 2) it was < 40 µM. The IC50 at RNA-pol S. aureus was > 50 µM.

With `O=C(Nc1cc(NS(=O)(=O)c2ccc(C(F)(F)F)cc2)cc(C(F)(F)F)c1)Nc1ccc(Cl)c(C(F)(F)F)c1` [Compound 122], the MIC in the test with E. coli (tolC) is > 125 µM; with S. aureus (Table 2), < 40 µM. Besides, the IC50 at RNA-pol S. aureus is 10 to 50 µM.

`O=C(Nc1cc(N2CCNC2=O)cc(C(F)(F)F)c1)Nc1ccc(Cl)c(C(F)(F)F)c1` [Compound 127]: the MIC in the test on E. coli (tolC) and with S. aureus (Table 2) was > 125 µM in each case. In addition, on RNA-pol S. aureus, the IC50 was 10 to 50 µM.

For the compound `O=C(Nc1cc(N2CCCC2)cc(C(F)(F)F)c1)Nc1ccc(Cl)c(C(F)(F)F)c1` [Compound 123], the MIC with E. coli (tolC) is > 125 µM; in the test on S. aureus (Table 2) it was < 40 µM. Moreover, the IC50 on RNA-pol S. aureus is < 10 µM.

In the case of `O=C(Nc1cc(N2CCOC2=O)cc(C(F)(F)F)c1)Nc1ccc(Cl)c(C(F)(F)F)c1` [Compound 126], the MIC in the test with E. coli (tolC) is < 40 µM; with S. aureus (Table 2), > 125 µM. Also, the IC50 on RNA-pol S. aureus is < 10 µM.

Consider `COCC1CCCN1c1cc(NC(=O)Nc2ccc(Cl)c(C(F)(F)F)c2)cc(C(F)(F)F)c1` (stereo not drawn) [Compound 124], for which the results for the MIC in the test with E. coli (tolC) and in the test with S. aureus (Table 2) were > 125 µM and < 40 µM, respectively. The IC50 on RNA-pol S. aureus lay in the range of 10 to 50 µM.

As for `O=C(COc1ccc(Cl)cc1)Nc1cc(NC(=O)Nc2ccc(Cl)c(C(F)(F)F)c2)cc(C(F)(F)F)c1` [Compound 121], the values for the MIC in the test with E. coli (tolC) and in the test with S. aureus (Table 2) were > 125 µM and < 40 µM, respectively. Moreover, the IC50 on RNA-pol S. aureus was > 50 µM.

As for `COCOc1cc(NC(=O)Nc2ccc(Cl)c(C(F)(F)F)c2)cc(C(F)(F)F)c1` [Compound 132, 1-(4-Chloro-3-trifluoromethyl-phenyl)-3-(3-methoxymethoxy-5-trifluoromethyl-phenyl)-urea], the MIC in the test on E. coli (tolC) and in the test with S. aureus (Table 2) was < 40 µM each time. For the same compound, the half-inhibitory concentration (IC50) on RNA-pol S. aureus is 10 to 50 µM.

With `O=C(Nc1cc(OCc2cccc(Cl)c2)cc(C(F)(F)F)c1)Nc1ccc(Cl)c(C(F)(F)F)c1` [Compound 135], in the test on E. coli (tolC), the MIC is > 125 µM. Besides, the IC50 at RNA-pol S. aureus is 10 to 50 µM.

For `O=C(CNc1cccc(Cl)c1)Nc1cc(NC(=O)CNc2cccc(Cl)c2)cc(C(F)(F)F)c1` [Compound 140, 2-(3-Chloro-phenylamino)-N-{3-[2-(3-chloro-phenylamino)-acetylamino]-5-trifluoromethyl-phenyl}acetamide], the MIC with E. coli (tolC) is > 125 µM; with S. aureus (Table 2) it was < 40 µM.

Regarding `O=C(Nc1cc(N2CCOCC2)cc(C(F)(F)F)c1)Nc1ccc(Cl)c(C(F)(F)F)c1` [Compound 125], the MIC in the test on E. coli (tolC) and in the test on S. aureus (Table 2) was < 40 µM each time. Moreover, the IC50 at RNA-pol S. aureus lay in the range of 10 to 50 µM.

Turning to `COc1cc(NC(=O)CNc2ccc(Cl)c(C(F)(F)F)c2)cc(C(F)(F)F)c1` [Compound 128], the MIC with E. coli (tolC) and in the test on S. aureus (Table 2) was < 40 µM throughout. In addition, the IC50 at RNA-pol S. aureus is > 50 µM.

On to `O=C(COc1ccc(Cl)cc1)Nc1cc(NCCNc2nc3cc(Cl)c(Cl)cc3[nH]2)cc(C(F)(F)F)c1` [Compound 131], for which the MIC with E. coli (tolC) is > 125 µM; in the test with S. aureus (Table 2), < 40 µM. At RNA-pol S. aureus, the IC50 is < 10 µM.

Turning to `C=CCOc1cc(NC(=O)Nc2ccc(Cl)c(C(F)(F)F)c2)cc(C(F)(F)F)c1` [Compound 134], the MIC with E. coli (tolC) was > 125 µM; in the test with S. aureus, < 40 µM. In addition, on RNA-pol S. aureus, the IC50 is < 10 µM.

Turning to `O=C(Nc1cc(O)cc(C(F)(F)F)c1)Nc1ccc(Cl)c(C(F)(F)F)c1` [Compound 133, 1-(4-Chloro-3-trifluoromethyl-phenyl)-3-(3-hydroxy-5-trifluoromethyl-phenyl)-urea], the MIC in the test on E. coli (tolC) and with S. aureus (Table 2) was < 40 µM throughout. At RNA-pol S. aureus, the IC50 is 10 to 50 µM.

For `C=CCOC(=O)Nc1cc(NC(=O)Nc2ccc(Cl)c(C(F)(F)F)c2)cc(C(F)(F)F)c1` [Compound 119], the MIC in the test on E. coli (tolC) and with S. aureus (Table 2) was < 40 µM throughout.

Source of the values: patent US7053234B2 (Amgen Inc., priority 2000, dated 2006).
